Measured values published in patent publication US10828317B2, “Method of treating bacterial infections” (priority 2016, dated 2020).
Read-outs that look alike come from different tables or passages of the source.

Tests used:
P. aeruginosa EN014 = experiment: MIC, WT; format: cell-based, Pseudomonas aeruginosa; settings: Pseudomonas aeruginosa, EN014, combination didanosine+trimethoprim+uridine, Table 10; read-out: MIC
P. mirabilis EN0457 = experiment: MIC; format: cell-based, Proteus mirabilis; settings: Proteus mirabilis, read-out: MIC
E. coli B EN0458 = experiment: MIC; format: cell-based, Escherichia coli B; settings: Escherichia coli, read-out: MIC
K. pneumoniae EN0463 = experiment: MIC; format: cell-based, Klebsiella pneumoniae; settings: Klebsiella pneumoniae, read-out: MIC
K. pneumoniae EN0249 = experiment: MIC, colistinR; format: cell-based; settings: Klebsiella pneumoniae, read-out: MIC
K. pneumoniae EN0245 = experiment: MIC, colistinR; format: cell-based; settings: Klebsiella pneumoniae, read-out: MIC
K. pneumoniae EN0244 = experiment: MIC, colistinR; format: cell-based; settings: Klebsiella pneumoniae, read-out: MIC
E. coli EN003 = experiment: microbe, parasite or virus in culture; format: cell-based, Escherichia coli; settings: Escherichia coli, EN003, combination didanosine+trimethoprim+uridine, Table 10
P. mirabilis ST19 EN0445 = experiment: MIC; format: cell-based, Proteus mirabilis; settings: Proteus mirabilis, read-out: MIC
A. baumannii EN016 = experiment: MIC, WT; format: cell-based, Acinetobacter baumannii; settings: Acinetobacter baumannii, read-out: MIC
K. pneumoniae EN0144 = experiment: MIC, MBL (VIM-1); format: cell-based; settings: Klebsiella pneumoniae, read-out: MIC
[1] = test system: A. pittii or A. nosocomialis EN0180; experiment: MIC; format: cell-based, Acinetobacter pittii or nosocomialis; settings: read-out: MIC
Citrobacter sp. EN0465 = experiment: MIC; format: cell-based; settings: Citrobacter, read-out: MIC
S. marescens EN0454 = experiment: MIC; format: cell-based, Serratia marescens; settings: Serratia, read-out: MIC
K. pneumoniae EN0140 = experiment: MIC, AmpC (DHA-1); format: cell-based; settings: Klebsiella pneumoniae, read-out: MIC
K. pneumoniae EN006 = experiment: MIC, WT (EN006 = EN0006, ATCC 13883); format: cell-based, Klebsiella pneumoniae
K. pneumoniae EN0145 = experiment: MIC, KPC-2; format: cell-based; settings: Klebsiella pneumoniae, read-out: MIC

SMILES: COc1cc(Cc2cnc(N)nc2N)cc(OC)c1OC [Trimethoprim, trimethoprim]
- MIC (P. aeruginosa EN014): > 8 µg/mL
- MIC (P. mirabilis EN0457; EN0457, Combination 1 AZT+trimethoprim+uridine, Table 16): 2 µg/mL
- MIC (P. mirabilis EN0457; EN0457, Combination 2 AZT+trimethoprim+uridine+thymidine, Table 16): > 4 µg/mL
- MIC (P. mirabilis EN0457; EN0457, combination AZT+trimethoprim+uridine, Table 6): 2 µg/mL
- MIC (P. mirabilis EN0457; EN0457, combination FdUrd+trimethoprim+uridine, Table 8): 2 µg/mL
- MIC (P. mirabilis EN0457; EN0457, combination didanosine+trimethoprim+uridine, Table 10): 4 µg/mL
- MIC (E. coli B EN0458; BEN0458, combination FdUrd+trimethoprim+uridine, Table 8): 0.064 µg/mL
- MIC (E. coli B EN0458; BEN0458, combination didanosine+trimethoprim+uridine, Table 10): 0.064 µg/mL
- MIC (K. pneumoniae EN0463; EN0463, combination AZT+trimethoprim+uridine, Table 6): 0.06 µg/mL
- MIC (K. pneumoniae EN0463; EN0463, combination FdUrd+trimethoprim+uridine, Table 8): 0.5 µg/mL
- MIC (K. pneumoniae EN0463; EN0463, combination didanosine+trimethoprim+uridine, Table 10): 0.5 µg/mL
- MIC (K. pneumoniae EN0249; EN0249, combination AZT+trimethoprim+uridine, Table 17B): 1 µg/mL
- MIC (K. pneumoniae EN0249; EN0249, combination FdUrd+trimethoprim+uridine, Table 19): > 8 µg/mL
- MIC (K. pneumoniae EN0249; EN0249, combination didanosine+trimethoprim+uridine, Table 20): > 8 µg/mL
- MIC (K. pneumoniae EN0245; EN0245, combination AZT+trimethoprim+uridine, Table 17B): 1 µg/mL
- MIC (K. pneumoniae EN0245; EN0245, combination FdUrd+trimethoprim+uridine, Table 19): > 8 µg/mL
- MIC (K. pneumoniae EN0245; EN0245, combination didanosine+trimethoprim+uridine, Table 20): > 8 µg/mL
- MIC (K. pneumoniae EN0244; EN0244, combination AZT+trimethoprim+uridine, Table 17B): 0.5 µg/mL
- MIC (K. pneumoniae EN0244; EN0244, combination FdUrd+trimethoprim+uridine, Table 19): > 8 µg/mL
- MIC (K. pneumoniae EN0244; EN0244, combination didanosine+trimethoprim+uridine, Table 20): > 8 µg/mL
- MIC (E. coli EN003): 0.064 µg/mL
- MIC (P. mirabilis ST19 EN0445; ST19EN0445, Combination 1 AZT+trimethoprim+uridine, Table 16): 1 µg/mL
- MIC (P. mirabilis ST19 EN0445; ST19EN0445, Combination 2 AZT+trimethoprim+uridine+thymidine, Table 16): > 4 µg/mL
- MIC (P. mirabilis ST19 EN0445; ST19EN0445, combination AZT+trimethoprim+uridine, Table 6): > 4 µg/mL
- MIC (P. mirabilis ST19 EN0445; ST19EN0445, combination FdUrd+trimethoprim+uridine, Table 8): 1 µg/mL
- MIC (P. mirabilis ST19 EN0445; ST19EN0445, combination didanosine+trimethoprim+uridine, Table 10): 2 µg/mL
- MIC (A. baumannii EN016; EN016, Combination 1 AZT+trimethoprim+uridine, Table 16): > 4 µg/mL
- MIC (A. baumannii EN016; EN016, Combination 2 AZT+trimethoprim+uridine+thymidine, Table 16): > 4 µg/mL
- MIC (A. baumannii EN016; EN016, combination AZT+trimethoprim+uridine, Table 6): > 4 µg/mL
- MIC (A. baumannii EN016; EN016, combination FdUrd+trimethoprim+uridine, Table 8): 8 µg/mL
- MIC (A. baumannii EN016; EN016, combination didanosine+trimethoprim+uridine, Table 10): > 8 µg/mL
- MIC (K. pneumoniae EN0144; EN0144, combination AZT+trimethoprim+uridine, Table 17B): 1 µg/mL
- MIC (K. pneumoniae EN0144; EN0144, combination FdUrd+trimethoprim+uridine, Table 19): > 8 µg/mL
- MIC (K. pneumoniae EN0144; EN0144, combination didanosine+trimethoprim+uridine, Table 20): > 8 µg/mL
- MIC ([1]; Combination 1 AZT+trimethoprim+uridine, Table 16): > 4 µg/mL
- MIC ([1]; Combination 2 AZT+trimethoprim+uridine+thymidine, Table 16): > 4 µg/mL
- MIC ([1]; combination AZT+trimethoprim+uridine, Table 6): > 4 µg/mL
- MIC ([1]; combination FdUrd+trimethoprim+uridine, Table 8): 8 µg/mL
- MIC ([1]; combination didanosine+trimethoprim+uridine, Table 10): > 8 µg/mL
- MIC (Citrobacter sp. EN0465; SP.EN0465, Combination 1 AZT+trimethoprim+uridine, Table 16): > 4 µg/mL
- MIC (Citrobacter sp. EN0465; SP.EN0465, Combination 2 AZT+trimethoprim+uridine+thymidine, Table 16): > 4 µg/mL
- MIC (Citrobacter sp. EN0465; SP.EN0465, combination AZT+trimethoprim+uridine, Table 6): > 4 µg/mL
- MIC (Citrobacter sp. EN0465; SP.EN0465, combination FdUrd+trimethoprim+uridine, Table 8): > 8 µg/mL
- MIC (Citrobacter sp. EN0465; SP.EN0465, combination didanosine+trimethoprim+uridine, Table 10): > 8 µg/mL
- MIC (S. marescens EN0454; EN0454, Combination 1 AZT+trimethoprim+uridine, Table 16): > 4 µg/mL
- MIC (S. marescens EN0454; EN0454, Combination 2 AZT+trimethoprim+uridine+thymidine, Table 16): > 4 µg/mL
- MIC (S. marescens EN0454; EN0454, combination AZT+trimethoprim+uridine, Table 6): 1 µg/mL
- MIC (S. marescens EN0454; EN0454, combination FdUrd+trimethoprim+uridine, Table 8): > 8 µg/mL
- MIC (S. marescens EN0454; EN0454, combination didanosine+trimethoprim+uridine, Table 10): > 8 µg/mL
- MIC (K. pneumoniae EN0140; EN0140, combination AZT+trimethoprim+uridine, Table 17B): 1 µg/mL
- MIC (K. pneumoniae EN0140; EN0140, combination FdUrd+trimethoprim+uridine, Table 19): > 8 µg/mL
- MIC (K. pneumoniae EN0140; EN0140, combination didanosine+trimethoprim+uridine, Table 20): > 8 µg/mL
- MIC (K. pneumoniae EN006; Klebsiella pneumoniae, EN006, Combination 2 AZT+trimethoprim+uridine+thymidine, Table 16, read-out: MIC): 0.5 µg/mL
- MIC (K. pneumoniae EN006; Klebsiella pneumoniae, EN006, combination AZT+trimethoprim+uridine, Table 6, read-out: MIC): 0.06 µg/mL
- MIC (K. pneumoniae EN006; Klebsiella pneumoniae, EN006, combination FdUrd+trimethoprim+uridine, Table 8, read-out: MIC): 1 µg/mL
- MIC (K. pneumoniae EN006; Klebsiella pneumoniae, EN006, combination didanosine+trimethoprim+uridine, Table 10, read-out: MIC): 1 µg/mL
- MIC (K. pneumoniae EN006; combination AZT+trimethoprim+uridine, Table 17B): 0.25 µg/mL
- MIC (K. pneumoniae EN006; combination FdUrd+trimethoprim+uridine, Table 19): 1 µg/mL
- MIC (K. pneumoniae EN006; combination didanosine+trimethoprim+uridine, Table 20): 1 µg/mL
- MIC (K. pneumoniae EN0145; EN0145, combination AZT+trimethoprim+uridine, Table 17B): 2 µg/mL
- MIC (K. pneumoniae EN0145; EN0145, combination FdUrd+trimethoprim+uridine, Table 19): > 8 µg/mL
- MIC (K. pneumoniae EN0145; EN0145, combination didanosine+trimethoprim+uridine, Table 20): > 8 µg/mL
